These are literature values, as cited in paper PMC11839696 (European Journal of Nuclear Medicine and Molecular Imaging, 2024).

In this series the test system is prostate cancer tissue. More on the design: AUC of the ROC analysis: unit not given beside the values.

With `O=C(O)CC[C@H](NC(=O)N[C@@H](CCCCNC(=O)[C@H](Cc1ccc2ccccc2c1)NC(=O)c1ccc(CNC(=O)[C@H](CCC(=O)O)NC(=O)[C@H](CCC(=O)O)NC(=O)c2ccc([18F])nc2)cc1)C(=O)O)C(=O)O` [[^18F]-PSMA-1007], where the note is “at 75 CPM”, the sensitivity is reported as 65.1% and the specificity is listed as 87%. For the setting “five patients, 113 cores”, the “optimal threshold for determining PCa” value is 75 CPM. In addition, the “AUC of the ROC analysis” value (five patients, 113 cores, within 3 h after injection) was 0.81.
